Assay results: patent US11485701B2, “Insect repellent compounds and compositions, and methods thereof” (Iowa State University Research Foundation, Inc., priority 2016, dated 2022)

Columns and labels:
Format in all cases: in vivo
[1] = system: Northern house mosquitoes (Culex pipiens); assay: Long-term spatial repellency, static air repellency chamber, filter papers air-dried 5 hours; conditions: Culex pipiens, 1 mL of 0.5% solution in acetone, air-dried 5 hours
Experimental: (§1) Northern house mosquitoes (Culex pipiens), a primary carrier of West Nile virus in eastern North America, were obtained from an established colony in the Medical Entomology Laboratory in the Department of Entomology at Iowa State University of Science and Technology, Ames Iowa. Mosquito rearing was performed by established protocols that are maintained by the Medical Entomology Laboratory. Repellency bioassays were performed with adult female mosquitoes that were 5-7 days post-emergent. […] Mosquitoes, prior to testing, were held at 27° C., 80% relative humidity, and on a 16:8 hr light:dark photoperiod.
Repellency bioassays were performed using a static air repellency chamber, which has been described in various publications by the Pesticide Toxicology Laboratory at Iowa State University of Science and Technology, Ames, Iowa Briefly, a 9-cm×60-cm glass tube was used to monitor the distribution of mosquitoes at 15 min, 30 min, 60 min, 90 min, 120 min, and 150 min after introducing mosquitoes into the static air repellency chamber. Treated filter papers were treated with 1 mL of 0.5% solution in acetone of the terpenoid analogs created in the lab and were exposed to ambient air for 5 hours before they were introduced into the spatial chamber for testing. This is a slight modification of the method described in Example 2, so as to evaluate the residual repellent character of these compounds on a treated surface after 5 hours. One end of the spatial chamber contained a treated filter paper, whereas the other (untreated) end of the spatial chamber was not treated with compound. Controls contained filter papers treated with acetone, the solvent used to make the 0.5% solutions. Each end of the repellency chamber was secured with a 100-mm Petri dish using celluloid tape. After securing the petri dishes with corresponding treated or untreated filter papers to the spatial chamber, mosquitoes were anesthetized with carbon dioxide, and approximately 20 female mosquitoes were placed into each repellency chamber for one replicate. The opening of the spatial repellency chamber was secured with celluloid tape to prevent their escape. Chambers were oriented in opposite directions from the previous replicate to account for any directional effect. Four replicates were performed for data analysis for both the control and treatment groups.
Data for spatial repellency, the percentage repellency, is reported at each of the respective time points in the figures and tables mentioned below in this disclosure. The percentage spatial repellency is the examination of the distribution of mosquitoes and is calculated using the following equation: […]

[2] = system: Northern house mosquitoes (Culex pipiens); assay: Short-term spatial repellency, static air repellency chamber; conditions: for pest or weed control at 0.5 %: Culex pipiens, filter paper, 1 mL of 0.5% solution in acetone, air-dried 15 min
Method in brief: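 Adult females 5-7 days post-emergence, ~20 per chamber, exposed in a 9×60 cm glass tube to filter paper treated with compound in acetone, the other end untreated. Distribution scored at 15-150 min as % spatial repellency; acetone controls, four replicates.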

[3] = system: Northern house mosquitoes (Culex pipiens); assay: Contact irritancy assay (percent escape from treated chamber); conditions: organza netting treated with 0.5% solution; 10 min; FIG. 14
Experimental: as §1
Organza were cut to approximately 11.5 cm×8 cm to wrap around the inside of the contact irritancy chamber. This piece of organza was treated with 1.5 mL of 0.5% or 0.05% solution of test compound in acetone. This organza was allowed to air-dry for 15 minutes before introducing them into the chamber. Organza sheets were draped around the inside wall of the metallic chamber and fastened to the walls of the chamber with small magnets. […] After ten minutes, the butterfly valve was once again closed and the number of mosquitoes was counted in the clear “counting” chamber. […]

[4] = 0.25 h, 15 min, read-out: Long-term Percentage repellency 15 min
[5] = 1.5 h, 90 min, read-out: Long-term Percentage repellency 90 min
[6] = 2.5 h, 150 min, read-out: Long-term Percentage repellency 150 min
[7] = 0.25 h, 15 min after introduction, read-out: Short-term Percentage repellency 15 min
[8] = 1.5 h, 90 min, read-out: Short-term Percentage repellency 90 min
[9] = 2.5 h, 150 min, read-out: Short-term Percentage repellency 150 min

Row | SMILES | pest or weed control at 0.5 % [1, 4] | pest or weed control at 0.5 % [1, 5] | pest or weed control at 0.5 % [1, 6] | pest or weed control at 0.5 % [2, 7] | pest or weed control at 0.5 % [2, 8] | pest or weed control at 0.5 % [2, 9] | Short-term repellency at low concentration, in words ([2]; filter paper treated with 0.1%, FIG. 6) | Contact irritancy, percentage escape [3]
1 | CC(C)=CCCC(C)CCOC(=O)C1CC1 (stereo not drawn) [Compound 1035A, citronellyl cyclopropanecarboxylate] | 70% | 80% | 62.5% | 22.5% | 92.5% | 90% | significant levels of repellency | 80%
2 | CC1CCC(C(C)(C)O)C(O)C1 (stereo not drawn) [p-menthane-3,8-diol, reference compound] | 7.5% | 5% | 5% | 12.5% | 12.5% | 20% |  | approximately 65%
